# Measurements taken from patent publication US20250255847A1, “[…]s: Novel Drugs for Triple Negative Breast Cancer” (SIMMARON RSEARCH INC, priority 2024, published 2025).
# Columns and labels:
# tumor burden = conditions: in vivo; cited from earlier work
# TNBC cells = conditions: cited from earlier work
# purified STAT1 protein = biological target: T1, purified STAT1 protein (Homo sapiens, UniProt P42224); experiment: Protein thermal shift (PTS) assay of STAT1; assay type: binding; conditions: 10 and 20 μM
# T1 sequence (P42224 1-750): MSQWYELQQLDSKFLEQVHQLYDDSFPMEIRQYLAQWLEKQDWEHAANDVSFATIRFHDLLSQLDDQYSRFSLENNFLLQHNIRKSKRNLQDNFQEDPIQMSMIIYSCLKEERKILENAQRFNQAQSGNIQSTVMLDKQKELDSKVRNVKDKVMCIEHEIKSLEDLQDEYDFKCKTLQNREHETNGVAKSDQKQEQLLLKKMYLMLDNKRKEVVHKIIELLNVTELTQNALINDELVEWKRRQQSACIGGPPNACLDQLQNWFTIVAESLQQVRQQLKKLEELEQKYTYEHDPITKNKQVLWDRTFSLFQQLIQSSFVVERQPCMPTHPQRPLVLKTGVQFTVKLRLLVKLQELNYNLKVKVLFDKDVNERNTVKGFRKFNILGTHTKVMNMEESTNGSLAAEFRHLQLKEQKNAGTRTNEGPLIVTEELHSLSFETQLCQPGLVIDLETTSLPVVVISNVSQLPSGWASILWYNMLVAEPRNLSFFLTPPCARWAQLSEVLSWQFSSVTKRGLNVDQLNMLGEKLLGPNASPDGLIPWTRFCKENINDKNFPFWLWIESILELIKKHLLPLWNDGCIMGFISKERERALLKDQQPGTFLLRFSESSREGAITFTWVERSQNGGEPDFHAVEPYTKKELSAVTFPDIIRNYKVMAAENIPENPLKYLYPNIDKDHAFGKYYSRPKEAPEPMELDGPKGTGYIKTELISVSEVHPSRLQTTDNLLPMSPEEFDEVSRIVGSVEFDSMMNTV
# Description: (§1) FIG. 5 illustrates an embodiment of the present invention and illustrates evaluations of SIM-1 and SIM-2 as STAT3 inhibitors. (A) Protein thermal shift assay was performed to assess the melting of purified recombinant STAT3 (blue; 0.5 μg protein) (Tm=melting temperature=68.88° C.). The representative melting curves were derived after adding SIM-1 (red; 4 nM), SIM-2 (purple; 8 nM), and positive control stattic (grey; 20 nM) to the STAT3 protein. The differences of melting temperature (ΔTm) between pure protein and protein+ligands are −4.54° C., −4.16° C., and 0.39° C. for SIM-1, SIM-2, and stattic (ΔTm^cut-off>2° C.). (B) Phospho protein array analysis was conducted in cell lysates of MDA-MB-468 cells treated with DMSO control (top left), 25 ng/mL EGF (top right), EGF+10 nM SIM-1 (bottom left), and EGF+SIM-2 (bottom right) for 24 hrs. Each colored arrowhead represents a specific phosphoprotein, and the description was added in the bottom of array images. S=serine and Y=tyrosine. Relative levels of (C) Tyrosine 705 (Y705) phosphorylated STAT3, (D) Serine 727 (S727) phosphorylated STAT3, (E) Tyrosine 693 (Y693) phosphorylated STAT4, (F) Tyrosine 694 ([…]) phosphorylated STAT5A had been derived after normalizing the spot densities (n=5) with respective β-actin spots. Results are mean±SD of five different spot analyses. One-way ANOVA was adopted to test the significance of mean between groups at **p<0.01, and ****p<0.0001. Ns=no significance. Thermal shift assays of increasing doses of (G) SIM-1, (H) SIM-2, and (I) stattic with purified STAT1 protein (0.5 μg protein). The respective ΔTm values were given with the plot after matching with the color code. Similarly, full-length STAT5b protein melting was assessed with (J) SIM-1, (K) SIM-2, and (L) stattic. Results are confirmed after three different experiments.
# (§2) To confirm the result, PTS assay of STAT1 with SIM-1 (FIG. 5G), SIM-2 (FIG. 5H), and stattic (FIG. 5I) was performed. […] Similar results were observed while performing the binding assay with STAT5b.
# [1] = biological target: T2, full-length STAT5b protein (Homo sapiens, UniProt P51692); experiment: Protein thermal shift binding assay with STAT5b; conditions: increasing doses
# T2 construct: full-length STAT5b protein melting was assessed with (J) SIM-1, (K) SIM-2, and (L) stattic
# T2 sequence (P51692 1-787): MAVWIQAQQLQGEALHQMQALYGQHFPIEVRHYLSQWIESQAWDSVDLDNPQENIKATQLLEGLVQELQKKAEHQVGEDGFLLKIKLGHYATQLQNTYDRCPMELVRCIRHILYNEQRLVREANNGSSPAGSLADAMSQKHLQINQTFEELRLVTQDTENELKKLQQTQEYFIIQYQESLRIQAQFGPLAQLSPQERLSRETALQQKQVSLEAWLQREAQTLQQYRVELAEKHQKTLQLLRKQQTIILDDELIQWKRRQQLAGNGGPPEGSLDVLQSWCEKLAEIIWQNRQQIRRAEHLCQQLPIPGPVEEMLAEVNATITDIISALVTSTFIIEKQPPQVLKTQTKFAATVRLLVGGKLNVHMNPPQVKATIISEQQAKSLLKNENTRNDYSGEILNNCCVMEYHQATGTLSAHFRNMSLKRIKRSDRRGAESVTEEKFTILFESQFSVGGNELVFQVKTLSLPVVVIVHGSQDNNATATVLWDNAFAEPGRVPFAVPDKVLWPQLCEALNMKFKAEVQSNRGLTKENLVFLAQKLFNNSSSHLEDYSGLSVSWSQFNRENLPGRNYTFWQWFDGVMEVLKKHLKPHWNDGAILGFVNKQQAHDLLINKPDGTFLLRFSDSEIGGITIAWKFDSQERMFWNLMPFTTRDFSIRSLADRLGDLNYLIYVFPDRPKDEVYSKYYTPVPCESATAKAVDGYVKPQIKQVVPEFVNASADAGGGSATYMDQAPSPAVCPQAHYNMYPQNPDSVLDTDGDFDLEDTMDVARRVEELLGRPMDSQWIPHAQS
# Description: as §1, §2
# STAT3 [2] = biological target: T3, STAT3 (Homo sapiens, UniProt P40763); experiment: Protein thermal shift assay with recombinant STAT3; assay type: binding; set-up: purchased Active motif 81095
# Description: as §1
# Target sequence in this assay (P40763 whole entry): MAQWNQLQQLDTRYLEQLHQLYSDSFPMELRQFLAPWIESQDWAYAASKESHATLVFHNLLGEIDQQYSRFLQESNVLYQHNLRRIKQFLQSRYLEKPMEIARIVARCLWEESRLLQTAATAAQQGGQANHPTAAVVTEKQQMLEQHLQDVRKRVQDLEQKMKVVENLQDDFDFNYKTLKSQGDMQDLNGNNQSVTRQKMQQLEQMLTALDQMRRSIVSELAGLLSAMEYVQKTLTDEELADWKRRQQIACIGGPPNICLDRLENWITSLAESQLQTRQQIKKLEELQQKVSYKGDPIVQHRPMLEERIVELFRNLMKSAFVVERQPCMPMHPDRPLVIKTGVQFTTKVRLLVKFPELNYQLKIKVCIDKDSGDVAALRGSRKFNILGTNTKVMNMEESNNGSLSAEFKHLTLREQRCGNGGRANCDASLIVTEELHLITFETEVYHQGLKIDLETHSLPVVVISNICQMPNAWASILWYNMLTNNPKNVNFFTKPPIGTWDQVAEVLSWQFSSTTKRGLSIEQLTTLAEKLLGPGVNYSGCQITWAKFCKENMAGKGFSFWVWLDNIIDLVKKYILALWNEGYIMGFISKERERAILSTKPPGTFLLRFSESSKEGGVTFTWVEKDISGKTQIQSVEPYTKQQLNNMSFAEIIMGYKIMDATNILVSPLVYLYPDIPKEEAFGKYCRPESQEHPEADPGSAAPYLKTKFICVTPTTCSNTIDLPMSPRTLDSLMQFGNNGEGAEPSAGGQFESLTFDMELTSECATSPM
# FIG. 6 illustrates an embodiment of the present invention and illustrates dose-dependent curves of maximum fluorescence for SIM1 and SIM2. Protein thermal shift assay of recombinant STAT3 was performed with increasing doses of (A) SIM-1, (B) SIM-2, and (C) positive control “Stattic”. The maximum fluorescence for each dose was derived and then plotted in GraphPad Prism software with respective doses. The resultant non-liner hyperbolic curves provide half-maximal binding (EC50) for all three compounds.
# This example provides a representative study of the present disclosure to test if SIM1 and SIM2 served as ligands of STAT3. Therefore, the present invention adopted a protein thermal shift assay in which […] of recombinant human STAT3 protein (active motif) was incubated with increasing doses of SIM1 and SIM2 followed by the execution of melting analysis starting from 25 to 95° C. as described elsewhere.
# STAT3 [3] = biological target: T3, STAT3; conditions: read-out: IC50 as STAT3 inhibitor; cited from earlier work
# Target sequence in this assay (P40763 whole entry, species assumed): as the sequence (P40763 whole entry) above
compound,measurement,setting,value
NC(=O)CC[C@H](NC(=O)[C@@H]1CC[C@@H]2CCN(C(=O)CCCCCC#Cc3cccc4c3CN(C3CCC(=O)NC3=O)C4=O)C[C@H](NC(=O)c3cc4cc(C(F)(F)P(=O)(O)O)ccc4[nH]3)C(=O)N21)C(=O)NC(c1ccccc1)c1ccccc1 (stereo partly drawn) [SD36],dose effectively reducing tumor burden,tumor burden,25-50 mg/Kg body weight (bwt)
same,CT50,TNBC cells,micromolar range
"O=[N+]([O-])c1ccc2c(c1)S(=O)(=O)C=C2 [stattic, reference compound]",CT50,TNBC cells,micromolar range
same,doses causing apoptosis of TNBC tumors,TNBC cells,10 to 20 µM
same,shift in the melting curve of STAT1,purified STAT1 protein,did not produce any shift
same,shift in the melting curve of STAT5b,[1],unable to produce any significant shift
same,ΔTm of STAT3,"STAT3 [2]; 20 nM ligand, cut-off 2° C.",0.39 °C
same,EC50,"STAT3 [2]; non-linear hyperbolic binding curve, read-out: EC50 (half-maximal binding, maximum fluorescence versus dose)",~2 µM
same,IC50,STAT3 [3],5 µM
